Our source for the TGI values is PubChem BioAssay (NCI).

Among the test systems are OVCAR-4 ovarian; HCT-15 colon; PC-3 prostate; SK-OV-3 ovarian; SF-539 CNS; LOX IMVI melanoma; UO-31 renal; CAKI-1 renal; TK-10 renal; OVCAR-8 ovarian; KM12 colon; HCC-2998 colon; NCI-H23 lung; OVCAR-3 ovarian; T-47D breast; EKVX NSCLC; SF-295 CNS; SNB-19 CNS; A549 NSCLC; MOLT-4 leukemia.
Holding throughout (test): NCI-60 cell line screen, 48 h

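Step 1: Grow cells in 96-well plates. Step 2: Expose to compound for 48 hours at 5 concentrations. Step 3: Interpolate endpoints linearly; if unreached, use highest concentration. TGI: concentration producing complete growth inhibition.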 Bounds are passed on as bounds.

Take `O=C1C(Cl)C(c2cccc(Br)c2)N1c1c(O)c(Cl)cc(Br)c1Cl` (configuration not stated): the TGI with OVCAR-4 ovarian stood at 24.7 µM; in the assay with HCT-15 colon, 19.3 µM; in the assay on PC-3 prostate, 75.1 µM; in the assay with SK-OV-3 ovarian it was 55.8 µM; in the assay on SF-539 CNS it was 32.6 µM; in the assay on LOX IMVI melanoma it was 28.5 µM. The TGI with UO-31 renal is 40 µM; in the assay with CAKI-1 renal, 81.1 µM; with TK-10 renal, 51.4 µM; in the assay with OVCAR-8 ovarian it was above 100 µM; with KM12 colon, 39.4 µM; with HCC-2998 colon, 23.2 µM. Also, the TGI stood at 37.9 µM with NCI-H23 lung; 36.1 µM with OVCAR-3 ovarian; 44.6 µM in the assay with T-47D breast; 39 µM with EKVX NSCLC; 31.1 µM in the assay on SF-295 CNS; 11.5 µM in the assay with SNB-19 CNS. The results for the TGI in the assay with A549 NSCLC and with MOLT-4 leukemia were 40 µM and 35.7 µM, respectively.

For the compound `O=C(Nc1ccc(N2C(=O)CSC2c2cccs2)cc1)c1ccc(N2C(=O)CSC2c2cccs2)cc1` (configuration not stated), the TGI in the assay with OVCAR-4 ovarian, in the assay on HCT-15 colon, in the assay with PC-3 prostate, in the assay with SK-OV-3 ovarian, in the assay with SF-539 CNS and in the assay with LOX IMVI melanoma was above 100 µM each time. Further, the TGI with UO-31 renal, with CAKI-1 renal, with TK-10 renal, with OVCAR-8 ovarian, in the assay with KM12 colon and in the assay on HCC-2998 colon was above 100 µM throughout. Besides, the TGI was 96.4 µM in the assay with NCI-H23 lung; above 100 µM in the assay with OVCAR-3 ovarian; above 100 µM with T-47D breast; above 100 µM in the assay on EKVX NSCLC; above 100 µM with SF-295 CNS; above 100 µM in the assay with SNB-19 CNS. The TGI with A549 NSCLC and with MOLT-4 leukemia was above 100 µM each time.

In the case of `COC1CC(n2ccc(=O)[nH]c2=O)OC1CO` (configuration not stated), the TGI in the assay with OVCAR-4 ovarian, with HCT-15 colon, in the assay with PC-3 prostate, in the assay on SK-OV-3 ovarian, in the assay with SF-539 CNS and in the assay with LOX IMVI melanoma was above 100 µM throughout. Moreover, the TGI in the assay on UO-31 renal, in the assay with CAKI-1 renal, with OVCAR-8 ovarian, with KM12 colon, with HCC-2998 colon and with NCI-H23 lung was above 100 µM each time. Besides, the TGI in the assay with OVCAR-3 ovarian, in the assay on T-47D breast, in the assay with EKVX NSCLC, with SF-295 CNS, in the assay with SNB-19 CNS and in the assay on A549 NSCLC was above 100 µM throughout. In addition, in the assay on MOLT-4 leukemia, the TGI is above 100 µM.

As for `O=C(O)c1nc2cc(C(F)(F)F)ccc2[nH]c1=O`, the TGI in the assay on OVCAR-4 ovarian, in the assay with HCT-15 colon, with PC-3 prostate, with SK-OV-3 ovarian, with SF-539 CNS and in the assay on LOX IMVI melanoma was above 100 µM throughout. For the same compound, the TGI in the assay on UO-31 renal, in the assay with CAKI-1 renal, in the assay on TK-10 renal, in the assay with OVCAR-8 ovarian, in the assay with KM12 colon and in the assay on HCC-2998 colon was above 100 µM in each case. The TGI in the assay on NCI-H23 lung, in the assay on OVCAR-3 ovarian, with T-47D breast, in the assay on EKVX NSCLC, in the assay with SF-295 CNS and in the assay on SNB-19 CNS was above 100 µM each time. Besides, the TGI in the assay on A549 NSCLC and in the assay on MOLT-4 leukemia was above 100 µM each time.

For `Cc1cc(S(=O)(=O)Nc2nc(N)nc(N(C)C)n2)c(SC(C(=O)O)c2ccccc2)cc1Cl` (configuration not stated), the TGI in the assay with OVCAR-4 ovarian, in the assay with HCT-15 colon, with PC-3 prostate, with SK-OV-3 ovarian, with SF-539 CNS and in the assay with LOX IMVI melanoma was above 10 µM each time. Also, the TGI with UO-31 renal, with CAKI-1 renal, in the assay on TK-10 renal, in the assay on OVCAR-8 ovarian, with KM12 colon and in the assay with HCC-2998 colon was above 10 µM each time. Besides, the TGI with NCI-H23 lung, in the assay with OVCAR-3 ovarian, with T-47D breast, with EKVX NSCLC, with SF-295 CNS and in the assay on SNB-19 CNS was above 10 µM throughout. The TGI with A549 NSCLC and in the assay on MOLT-4 leukemia was above 10 µM each time.

On to `O=[N+]([O-])c1cc(C(F)(F)F)ccc1S(=O)(=O)N[C@@H]1CCCC[C@H]1NS(=O)(=O)c1ccc(C(F)(F)F)cc1[N+](=O)[O-]`, for which the TGI with OVCAR-4 ovarian came to 29.2 µM; in the assay on HCT-15 colon, 10.1 µM; in the assay with PC-3 prostate it was 14.1 µM; in the assay on SK-OV-3 ovarian it was 71.7 µM; with SF-539 CNS it was 3.56 µM; in the assay with LOX IMVI melanoma it was 3.24 µM. Also, the TGI was above 23.2 µM in the assay with UO-31 renal; 10 µM with CAKI-1 renal; above 100 µM in the assay with TK-10 renal; 20.2 µM in the assay with OVCAR-8 ovarian; 12.1 µM in the assay with KM12 colon; above 39.9 µM in the assay with HCC-2998 colon. Moreover, the TGI is 6.92 µM in the assay with NCI-H23 lung; 7.07 µM in the assay on OVCAR-3 ovarian; above 50.7 µM with T-47D breast; 93.3 µM in the assay on EKVX NSCLC; 9.38 µM in the assay with SF-295 CNS; above 31.6 µM in the assay with SNB-19 CNS. In the assay with A549 NSCLC, this compound displayed a TGI above 31.3 µM.

`Cc1ccc(C2SC(N)=Nc3c2c(C)nn3C(=O)c2ccc(Cl)cc2)cc1` (configuration not stated): the TGI in the assay with OVCAR-4 ovarian, with HCT-15 colon, in the assay with PC-3 prostate, in the assay with SK-OV-3 ovarian, with SF-539 CNS and in the assay on LOX IMVI melanoma was above 10 µM throughout. The TGI in the assay with CAKI-1 renal, with TK-10 renal, with OVCAR-8 ovarian, in the assay on KM12 colon, in the assay on HCC-2998 colon and in the assay on NCI-H23 lung was above 10 µM throughout. For the same compound, the TGI in the assay on OVCAR-3 ovarian, in the assay on T-47D breast, in the assay with EKVX NSCLC, in the assay on SF-295 CNS, in the assay with SNB-19 CNS and in the assay on A549 NSCLC was above 10 µM each time. In addition, the TGI in the assay on MOLT-4 leukemia was above 10 µM.
